Reference: ChEMBL document CHEMBL4354877, “MymA Bioactivated Thioalkylbenzoxazole Prodrug Family Active against Mycobacterium tuberculosis” (J Med Chem, 2020)
≈ marks a conversion by molar mass, not a printed value. Calls of active or inactive are those of the source. No cut-off for these calls is given here.

Tests used:
[1] = Intrinsic clearance in mouse liver microsomes at 0.5 uM incubated for 45 mins in presence of NADPH by LC-MS/MS analysis; type: ADME, Microsome; settings: 0.75 h
[2] = Stability in human liver microsomes assessed as GSH-conjugates formation at 25 uM incubated for 60 mins in presence of NADPH and GSH by LC-MS/MS analysis; type: ADME, Microsome; settings: 1 h
[3] = Permeability at pH 7.4 incubated for 4 hrs by PAMPA method; type: ADME; settings: read-out: permeability
[4] = Solubility in pH 6.5 FaSSIF incubated for 4 hrs by HPLC-UV based assay; type: physicochemical
[5] = system: Mycobacterium tuberculosis; test: Antimycobacterial activity against Mycobacterium tuberculosis H37Rv infected in C57BL/6 mouse model of acute infection assessed as reduction in mycobacterial load in lung at 200 mg/kg dosed once per day for 8 days co-dosed with 50 mg/kg/day CYP inhibitor ABT; type: functional, organism-based
[6] = system: Mycobacterium tuberculosis; test: Antimycobacterial activity against Mycobacterium tuberculosis H37Rv intracellular forms infected in human THP1 cells assessed as inhibition of microbial growth incubated for 5 days by luciferase reporter gene assay; type: functional; settings: THP-1, 120 h
[7] = target: T1, Cytochrome P450 3A4 (Homo sapiens, UniProt P08684); test: Inhibition of CYP3A4 (unknown origin) in absence of cofactor; type: ADME
[8] = target: T1, Cytochrome P450 3A4; test: Inhibition of CYP3A4 (unknown origin) in presence of cofactor; type: ADME
[9] = Intrinsic clearance in human liver microsomes at 0.5 uM incubated for 45 mins in presence of NADPH by LC-MS/MS analysis; type: ADME, Microsome; settings: 0.75 h
[10] = Kinetic aqueous solubility in pH 7.4 PBS incubated for 1 hr by CLND assay; type: physicochemical; settings: read-out: Kinetic_solubility
[11] = system: Hepatocyte; test: Cytotoxicity in human primary hepatocytes assessed as reduction in cell viability up to 100 uM incubated for 72 hrs by MTT assay; type: cell-based
[12] = system: THP-1; test: Cytotoxicity in human THP1 cells assessed as reduction in cell viability incubated for 5 days hrs by ATPLite assay; type: cell-based; settings: THP-1, 120 h
[13] = system: HepG2; test: Cytotoxicity in human HepG2 cells assessed as reduction in cell viability incubated for 48 hrs by Cell-titer Glo kit based assay; settings: HepG2, 48 h
[14] = system: Mycobacterium tuberculosis; test: Antimycobacterial activity against Mycobacterium tuberculosis extracellular forms assessed as inhibition of microbial growth; type: functional
[15] = system: Mycobacterium tuberculosis; test: Antimycobacterial activity against Mycobacterium tuberculosis H37Rv assessed as inhibition of microbial growth incubated for 6 days by alamar blue resazurin assay; type: functional; settings: 144 h

T1 sequence (P08684 whole entry): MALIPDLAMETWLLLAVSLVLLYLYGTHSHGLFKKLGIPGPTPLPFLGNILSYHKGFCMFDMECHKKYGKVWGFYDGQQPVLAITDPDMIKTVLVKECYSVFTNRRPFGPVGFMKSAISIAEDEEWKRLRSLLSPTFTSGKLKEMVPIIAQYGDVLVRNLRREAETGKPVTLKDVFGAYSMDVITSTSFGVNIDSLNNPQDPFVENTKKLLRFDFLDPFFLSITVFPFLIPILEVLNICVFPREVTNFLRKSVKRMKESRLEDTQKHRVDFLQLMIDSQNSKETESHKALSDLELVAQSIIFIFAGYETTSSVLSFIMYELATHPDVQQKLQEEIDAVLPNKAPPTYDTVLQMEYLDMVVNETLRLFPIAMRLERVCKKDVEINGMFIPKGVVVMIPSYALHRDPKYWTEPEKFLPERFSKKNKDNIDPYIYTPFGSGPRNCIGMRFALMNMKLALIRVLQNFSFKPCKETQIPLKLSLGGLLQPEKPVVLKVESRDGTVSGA

SMILES	CLH [1] [mL/min/g]	IC90 [6] [µM]	CLH [9] [mL/min/g]	further results
O=C(CCSc1nc2cc(Cl)ccc2o1)N1CCCC1	131 to 132	2.8	5.8	Stability [2]: Stable; Papp at 4 h [3]: 78 ×10⁻⁶ cm/s; solubility at 4 h [4]: 8 µg/mL (≈ 25.7 µM); Activity [5]: inactive; IC50 [7]: > 39.8 µM; IC50 [8]: > 39.8 µM; solubility kinetic at 1 h [10]: > 362 µM; Activity [11]: Non-Toxic; IC50 [12]: > 50 µM; IC50 [13]: > 100 µM; MIC [14]: 10 µM; MIC [15]: 10 µM
CN(CCC(=O)N1CCCC1)c1nc2cc(Cl)ccc2o1		> 50	1.9	
O=C(CCSc1nc(-c2ccccc2)co1)N1CCCC1		> 50	20.9	
CN(C(=O)CCSc1nc2cc(Cl)ccc2o1)C1CCS(=O)(=O)C1 (stereo not drawn)	0.8	25.4	1.5	
COc1ccc2oc(SCCC(=O)N3CCCC3)nc2c1	197.8	4	6.1	
O=C(CCCc1nc2cc(Cl)ccc2o1)N1CCCC1	115.2	> 50	1.4	
CS(=O)(=O)C1CCN(C(=O)CCSc2nc3cc(Cl)ccc3o2)C1 (racemic)	2.1	> 50	< 0.4	
O=C(CCSc1ncc(-c2ccccc2)o1)N1CCCC1	176.6	> 50	11	
CN(C(=O)CCSc1nc2cc(F)ccc2o1)C1CCS(=O)(=O)CC1	0.6	> 50	< 0.4	
O=C(CCSc1nc2cc(Cl)ccc2s1)N1CCCC1	67	15.6	15	
O=C1CCCN1CCCSc1nc2cc(Cl)ccc2o1	51	6.5	4.8	
O=C(CCSc1nc2cccc(Cl)c2o1)N1CCCC1	121.9	2.7	13.5	
O=C(CCSc1nc2ccc(Cl)cc2o1)N1CCCC1	109.4	1.6	6.6	
O=C(CCNc1nc2cc(Cl)ccc2o1)N1CCCC1	81.1	> 50	2.3	
O=C(CCSc1nc2cc(F)ccc2o1)N1CCS(=O)(=O)CC1	1.5	> 50	0.4	
CC1CCN(C(=O)CCSc2nc3cc(Cl)ccc3o2)C1 (stereo not drawn)	90.7	3.1	10.1	
O=C(CCCSc1nc2cc(Cl)ccc2o1)N1CCCC1	124.8	2.3	3.4	
CN(C)C(=O)CCSc1nc2cc(Cl)ccc2o1	41.8	30	2.7	
O=C(CSc1nc2cc(Cl)ccc2o1)N1CCCC1	153.6	36	1.6	
CCNC(=O)CCSc1nc2cc(Cl)ccc2o1		> 50		
O=C(CCSc1nc2cc(Cl)ccc2o1)N1CCC1	17.9	> 50	3.7	
CCN(CC)C(=O)CCSc1nc2cc(Cl)ccc2o1	107.5	3.9	5.9	
O=C(CCSc1nc2cc(F)ccc2o1)N1CCCC1	115.2	1.6	5.2	
O=C(CCSc1nc2cc(Cl)ccc2o1)N1CCC(F)(F)C1	83.6	1.1	11.3	
CS(=O)(=O)C1CCN(C(=O)CCSc2nc3cc(Cl)ccc3o2)CC1	2.6	> 50	0.5	

SMILES	CLH [1] [mL/min/g]	IC90 [6] [µM]	CLH [9] [mL/min/g]	further results
Clc1ccc2oc(SCCCN3CCCC3)nc2c1	10.4	42.6	1.9	
O=C(CCSc1nc2ccccc2o1)N1CCCC1	161.2	4.4	5.1	
O=C(CCSc1nc2cc(N3CCOCC3)ccc2o1)N1CCCC1	18.7	27.2	1.1	
O=C(CCSc1nc2ccncc2o1)N1CCCC1	5.7	> 50	0.9	
O=C(CCSc1nc2c(Cl)cccc2o1)N1CCCC1	97.9	24.3	15.8	
CS(=O)(=O)N1CCN(C(=O)CCSc2nc3cc(Cl)ccc3o2)CC1	1.4	20.4	0.6	
O=C(CCSc1nc2cc(Cl)ccc2o1)N1CCOCC1	36.5	11.4	2.2	
CN1CCN(C(=O)CCSc2nc3cc(Cl)ccc3o2)CC1	41.5	17.2	1.5	
O=C(CCSc1nc2cc(Cl)ccc2o1)N1CCS(=O)(=O)C1	8.9	> 50	1.7	
O=C(CCSc1nc2cc(Cl)ccc2o1)NC1CCCC1		> 50	11.3	
Cc1ccc2oc(SCCC(=O)N3CCCC3)nc2c1		8.4	9.3	
CC(CC(=O)N1CCCC1)Sc1nc2cc(Cl)ccc2o1 (stereo not drawn)	165.1	4	8.6	
CC1CCCN1C(=O)CCSc1nc2cc(Cl)ccc2o1 (racemic)	98	25.5	8.5	
O=C(CCSc1nc2cc(Cl)ccc2[nH]1)N1CCCC1	56.8	> 50	9.2	
O=C(CSCc1nc2cc(Cl)ccc2o1)N1CCCC1	71.8	> 50	1.5	
O=C(CCSc1nc2cc(Cl)ccc2o1)N1CCS(=O)(=O)CC1	2.3	> 50	0.4	
CSc1nc2cc(Cl)ccc2o1	> 46.1	> 50	19	
Cc1nc(SCCC(=O)N2CCCC2)oc1C	3.9	> 50	< 0.4	
O=C(CCSc1nc2ncccc2o1)N1CCCC1	18.6	> 50	0.7	
O=S1(=O)CCCN1CCCSc1nc2cc(Cl)ccc2o1	115.2	7.7	4.7	
O=C(CCSc1nc2cc(F)c(F)cc2o1)N1CCCC1	45.9	1.3	6.5	
O=C(CCSc1nc2cnccc2o1)N1CCCC1	3.1	35.1	0.6	
O=C(CCSc1nc2cc(Cl)ccc2o1)N1CCCCC1	127.7	2.5	10.7	
CN(C(=O)CCSc1nc2cc(Cl)ccc2o1)C1CCS(=O)(=O)CC1	0.7	7.7	< 0.4	Papp at 4 h [3]: 44 ×10⁻⁶ cm/s; solubility at 4 h [4]: 178 µg/mL (≈ 442 µM); solubility kinetic at 1 h [10]: > 328 µM; IC50 [13]: > 100 µM; MIC [14]: 40 µM
